Key:
PBMCs = experiment: Cytokine induction in vitro in PBMC culture supernatants; format: cell-based, human; conditions: 24 hours
Description: Culture supernatants were analyzed for induction of several cytokines as shown in S3 Table, using a 10-plex MSD (Meso Scale Discovery) assay following manufacturer’s instructions. MSD Workbench 4.0 software was used for data analysis and 4-parameter logistic curve fit model was utilized to determine values of experimental samples from standard curves. Values for each cytokine (pg/mL) for a given concentration was calculated as the geometric mean of all triplicate values combined from all 5 donors.

[1] = system: platelets (CD62P+) and CD4+ T cells (CD69+) in whole blood; experiment: In vitro whole blood platelet and CD4+ T-cell activation assay; format: cell-based, human; conditions: for CD62P EC50/CD69 EC50 ratio Geomean: whole blood from healthy donors, platelets to CD4+ T cells
Description: We developed a novel human whole blood assay to determine whether other PKC agonists also activate platelets at the same concentrations that are required to activate CD4^+ T cells. Platelet activation was assessed by CD62P (P-selectin), which traffics to the cell surface upon activation and α-granule release. CD4^+ T-cell activation was assessed by CD69 upregulation (Fig 7A).
Whole blood was drawn into sodium citrate tubes using a 21-gauge needle. To prevent potential interference from tissue thromboplastin released during venipuncture, which could affect the accuracy of coagulation testing, the first 2 mL of blood drawn was discarded. PKC agonist molecules were dispensed in a dilution series into 80 μL of blood per well in a flat-bottom 96-well plate and mixed gently. Care was taken not to introduce any mechanical stress-related activation of platelets. […] The remaining 72 μL of blood in the first plate was incubated for 1 additional hour and stained with anti-human CD3 (UCHT1), CD4 (SK3), and CD69 (FN50) (30 minutes in the dark). Red blood cell lysis and fixing was done using BD lyse/fix solution. Stained cells were acquired on BD LSR Fortessa II after washing. […] EC50 values for platelet and CD4 T-cell activation for each agonist was obtained by nonlinear regression curve fit using GraphPad Prism version 9.3.0.

Plasma PK in rats = format: in vivo, rat; conditions: slow IV infusion
Description: Wild-type male Sprague Dawley (Hsd: Sprague Dawley SD) rats (8–15 weeks old) were sourced from the Covance stock colony for conduct of in vivo studies at Covance Laboratories Inc. (Madison, Wisconsin, USA). Rats were administered a single dose of vehicle control (n = 3), or 0.1, 0.3, 1, or 3 mg/kg C-232A (n = 6), or 10 mg/kg C-233 by intravenous infusion over 30 minutes. Blood samples were collected through 24 hours postdose. Samples for PK measurement of C-232A concentration were processed to plasma and shipped to Gilead Sciences (Foster City, California, USA). Samples were analyzed at Covance Laboratories for hematology and clinical chemistry panels. At unscheduled necropsy (3 mg/kg C-232A), tissues were preserved in 10% neutral-buffered formalin, embedded in paraffin, mounted on slides, and stained with hematoxylin and eosin. Tissues were then evaluated independently (Experimental Pathology Laboratories, Inc).
Rat and rhesus plasma samples (20 µL aliquot of each) were treated with 100 µL acetonitrile containing a generic internal small-molecule standard. […] The descriptive PK parameters were analyzed using noncompartmental analysis with Phoenix WinNonlin software (version 8.2, Certara USA, Inc.). The area under the plasma concentration–time curve (AUClast) values were calculated using the linear trapezoid method.

PKC-β1 = PKC-β1 (Homo sapiens, UniProt P05771); experiment: PKC isoform translocation in A549-tGFP cells; format: cell-based; set-up: host or cells: A549; conditions: 60 minutes
Description: (§1) Using these findings we embarked on new designs for DAG-lactones with additional substituents from the ester moiety in combination with a few olefin substituents. A description of this effort is reported elsewhere.
(§2) Cellular translocation of PKC isoforms upon activation was determined in 8 A549 cell lines, each expressing a single PKC isoform fused to tGFP (PhenoVista Biosciences). Cells were plated in 384-well plates (80 μL/well) at 10^5 cells/mL in RPMI with 10% FBS and rested overnight. PKC agonist(s) were serially diluted at 1:3 steps in DMSO and added to the cells. After 60 minutes in an incubator at 37 °C, 5% CO2, cells were stained with Hoechst-33342 and fixed with 2% paraformaldehyde for 30 minutes at 4 °C. Cells were then stained with wheat germ agglutinin conjugated to AlexaFluor647 (WGA-647) for 10 minutes at 4 °C, washed to remove excess dye and imaged with Cellomics Array Scan (Thermo Fisher) at room temperature (RT). Images were analyzed using Cellomics automated image analysis algorithm. Plasma membrane translocation was quantified using the ratio between the average fluorescence in the areas at the cell edge defined by WGA-647 and the cytoplasm region.

PKC-β2 = PKC-β2 (Homo sapiens, UniProt P05771); experiment: PKC isoform translocation in A549-tGFP cells; format: cell-based; set-up: host or cells: A549; conditions: 60 minutes
Description: as §1, §2

CD69 on CD4+ T cells [2] = experiment: CD69 expression levels in rhesus blood (flow cytometry); format: in vivo, rhesus macaque
Description: CD69 protein expression levels in whole blood were measured using flow cytometry. Samples, collected in K2EDTA tubes, were surface stained with anti-human monoclonal antibodies against markers CD3 (UCHT1), CD4 (SK3), and activation marker CD69 (FN50) for 30 minutes at RT. Red blood cells were lysed and cells were fixed (BD Lyse/Fix buffer) according to the manufacturer’s instructions. All data were acquired on an LSR II (BD Biosciences) and were analyzed using FlowJo software.

CD69 on CD4+ T cells [3] = experiment: CD4+ T-cell activation flow cytometry (CD69); format: cell-based; conditions: Homo sapiens; CD4+ T cells from ART-suppressed people with HIV; read-out: EC50, activation of CD69 expression
Description: Sixteen hours post treatment with PKC agonists, cellular activation of 100,000 CD4^+ T cells, taken from the above ex vivo HIV activation cultures, was assessed using flow cytometry. Cell surface expression of CD69 was measured on CD4^+ T cells using anti-human CD3 (UCHT1), CD4 (SK3) and CD69 (FN50) antibodies and standard flow staining methods. Stained cells were acquired on the Becton Dickinson (BD) LSR Fortessa II flow cytometer and results were analyzed using FlowJo software.

PKC-β2, sequence (P05771 1-673 isoform P05771-2): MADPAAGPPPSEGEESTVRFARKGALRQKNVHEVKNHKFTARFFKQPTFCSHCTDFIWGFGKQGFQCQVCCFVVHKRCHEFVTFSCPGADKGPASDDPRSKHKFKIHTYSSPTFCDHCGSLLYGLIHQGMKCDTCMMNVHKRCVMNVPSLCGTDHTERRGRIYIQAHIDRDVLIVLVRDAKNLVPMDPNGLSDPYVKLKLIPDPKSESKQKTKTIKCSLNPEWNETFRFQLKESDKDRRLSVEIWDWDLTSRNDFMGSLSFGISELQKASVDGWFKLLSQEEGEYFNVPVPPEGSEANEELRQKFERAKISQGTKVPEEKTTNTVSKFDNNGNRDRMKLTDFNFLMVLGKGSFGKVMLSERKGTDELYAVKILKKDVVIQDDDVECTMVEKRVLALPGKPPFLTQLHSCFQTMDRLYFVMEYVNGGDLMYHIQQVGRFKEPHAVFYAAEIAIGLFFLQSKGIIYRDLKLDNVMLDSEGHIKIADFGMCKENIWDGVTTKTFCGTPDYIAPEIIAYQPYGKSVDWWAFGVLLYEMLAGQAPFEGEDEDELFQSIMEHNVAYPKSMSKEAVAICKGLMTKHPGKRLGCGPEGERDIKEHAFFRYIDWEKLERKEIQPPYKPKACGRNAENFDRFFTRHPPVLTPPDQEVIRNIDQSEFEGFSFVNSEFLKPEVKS
PKC-β1, sequence (P05771 whole entry, canonical isoform): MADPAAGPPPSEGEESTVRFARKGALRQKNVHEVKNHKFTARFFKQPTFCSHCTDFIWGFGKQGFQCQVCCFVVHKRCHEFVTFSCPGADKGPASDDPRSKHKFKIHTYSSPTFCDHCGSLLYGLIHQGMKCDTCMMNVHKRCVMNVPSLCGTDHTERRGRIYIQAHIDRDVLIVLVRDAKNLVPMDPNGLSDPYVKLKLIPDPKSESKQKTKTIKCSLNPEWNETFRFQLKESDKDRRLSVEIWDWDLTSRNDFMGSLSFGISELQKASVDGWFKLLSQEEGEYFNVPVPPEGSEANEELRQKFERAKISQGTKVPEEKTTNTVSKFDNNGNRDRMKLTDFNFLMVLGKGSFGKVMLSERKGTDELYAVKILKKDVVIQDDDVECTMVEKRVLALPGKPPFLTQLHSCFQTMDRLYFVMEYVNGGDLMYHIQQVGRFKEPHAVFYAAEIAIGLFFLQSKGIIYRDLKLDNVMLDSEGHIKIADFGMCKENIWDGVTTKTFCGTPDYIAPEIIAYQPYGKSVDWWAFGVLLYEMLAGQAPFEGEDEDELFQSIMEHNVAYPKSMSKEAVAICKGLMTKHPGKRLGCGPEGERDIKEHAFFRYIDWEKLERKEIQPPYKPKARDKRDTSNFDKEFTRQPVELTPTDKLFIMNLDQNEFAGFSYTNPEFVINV

SMILES | GM-CSF in PBMC culture supernatant (PBMCs; 156 nM) [pg/mL] | IFN-γ in PBMC culture supernatant (PBMCs; 156 nM) [pg/mL] | IL-1b in PBMC culture supernatant (PBMCs; 156 nM) [pg/mL] | IL-2 in PBMC culture supernatant (PBMCs; 156 nM) [pg/mL] | IL-4 in PBMC culture supernatant (PBMCs; 156 nM) [pg/mL] | IL-6 in PBMC culture supernatant (PBMCs; 156 nM) [pg/mL] | IL-8 in PBMC culture supernatant (PBMCs; 156 nM) | IL-10 in PBMC culture supernatant (PBMCs; 156 nM) [pg/mL] | IL-12p70 in PBMC culture supernatant (PBMCs; 156 nM) [pg/mL] | TNF-α in PBMC culture supernatant (PBMCs; 156 nM) [pg/mL] | GM-CSF in PBMC culture supernatant (PBMCs; 625 nM) [pg/mL] | IFN-γ in PBMC culture supernatant (PBMCs; 625 nM) [pg/mL] | IL-1b in PBMC culture supernatant (PBMCs; 625 nM) [pg/mL] | IL-2 in PBMC culture supernatant (PBMCs; 625 nM) [pg/mL] | IL-4 in PBMC culture supernatant (PBMCs; 625 nM) [pg/mL] | IL-6 in PBMC culture supernatant (PBMCs; 625 nM) [pg/mL] | IL-8 in PBMC culture supernatant (PBMCs; 625 nM) | IL-10 in PBMC culture supernatant (PBMCs; 625 nM) [pg/mL] | IL-12p70 in PBMC culture supernatant (PBMCs; 625 nM) [pg/mL] | TNF-α in PBMC culture supernatant (PBMCs; 625 nM) [pg/mL] | also measured
Cc1ccc(C#Cc2ccc3oc(CC(C)(C)C(=O)OCC4(CO)CC(=CCC(CC(C)C)CC(C)C)C(=O)O4)cc3c2)cc1 (stereo not shown) [C-232A] | 40 | 202 | 72 | 14 | 0.4 | 84 | 43,224 pg/mL | 4.9 | 7 | 883 | 71 | 172 | 125 | 17 | 0.6 | 100 | 45,964 pg/mL | 3.6 | 9 | 1424 | CD62P EC50/CD69 EC50 ratio Geomean [1]: 1.7; PK plasma profile (Plasma PK in rats; 0.1, 0.3, 1, and 3 mg/kg): dose-dependent C-232A PK plasma profiles; EC50 (PKC-β1): 3280 nM; EC50 (PKC-β2): 2260 nM; expression of CD69 on CD4+ T cells (CD69 on CD4+ T cells [2]; 1 mg/kg, at peak): 59%; time of peak CD69 expression postdose (CD69 on CD4+ T cells [2]; rhesus monkey, in vivo): 4 to 8 h; EC50 (CD69 on CD4+ T cells [3]): 57 nM
Cc1ccc(C#Cc2ccc(C(=O)OCC3(CO)Cc4c(-c5ccccc5)ccnc4O3)cc2)cc1 (stereo not shown) [C-233] | 14 | 215 | 42 | 10 | 0.3 | 40 | 36,739 pg/mL | 4 | 5 | 308 | 30 | 135 | 60 | 14 | 0.6 | 44 | 45,465 pg/mL | 4 | 9 | 834 | more potent for T-cell activation relative to platelet activation ([1]; whole blood): 5 fold; CD62P EC50/CD69 EC50 ratio Geomean [1]: 5.1; improvement relative to the other classes of PKC agonists tested ([1]; whole blood, T-cell versus platelet potency): 2.4- to 3 fold; PK profile (Plasma PK in rats; 1, 3, and 10 mg/kg, n = 3 male rats/group): Dose-dependent increases in the PK profile; EC50 (CD69 on CD4+ T cells [3]): 99 nM
